The EC50 is the concentration that produces a half-maximal response.

Structures are written as SMILES. Several values for one entry are separate records, joined by “and”; a condition that tells them apart may be missing. Identical values can stand only once. Counter-ions that a name gives are not always drawn.

The test has as its target T1, abc isoform of human TMEM16A channel expressed in CHO cells (Homo sapiens, UniProt Q5XXA6, DEL476-501).
T1 construct: expressed in transfected cells; host or cells: CHO cells, doxycycline-inducible expression under Blasticidin/Zeocin selection
T1 sequence (Q5XXA6 with tags, fused parts or gaps isoform Q5XXA6-5 DEL539-564): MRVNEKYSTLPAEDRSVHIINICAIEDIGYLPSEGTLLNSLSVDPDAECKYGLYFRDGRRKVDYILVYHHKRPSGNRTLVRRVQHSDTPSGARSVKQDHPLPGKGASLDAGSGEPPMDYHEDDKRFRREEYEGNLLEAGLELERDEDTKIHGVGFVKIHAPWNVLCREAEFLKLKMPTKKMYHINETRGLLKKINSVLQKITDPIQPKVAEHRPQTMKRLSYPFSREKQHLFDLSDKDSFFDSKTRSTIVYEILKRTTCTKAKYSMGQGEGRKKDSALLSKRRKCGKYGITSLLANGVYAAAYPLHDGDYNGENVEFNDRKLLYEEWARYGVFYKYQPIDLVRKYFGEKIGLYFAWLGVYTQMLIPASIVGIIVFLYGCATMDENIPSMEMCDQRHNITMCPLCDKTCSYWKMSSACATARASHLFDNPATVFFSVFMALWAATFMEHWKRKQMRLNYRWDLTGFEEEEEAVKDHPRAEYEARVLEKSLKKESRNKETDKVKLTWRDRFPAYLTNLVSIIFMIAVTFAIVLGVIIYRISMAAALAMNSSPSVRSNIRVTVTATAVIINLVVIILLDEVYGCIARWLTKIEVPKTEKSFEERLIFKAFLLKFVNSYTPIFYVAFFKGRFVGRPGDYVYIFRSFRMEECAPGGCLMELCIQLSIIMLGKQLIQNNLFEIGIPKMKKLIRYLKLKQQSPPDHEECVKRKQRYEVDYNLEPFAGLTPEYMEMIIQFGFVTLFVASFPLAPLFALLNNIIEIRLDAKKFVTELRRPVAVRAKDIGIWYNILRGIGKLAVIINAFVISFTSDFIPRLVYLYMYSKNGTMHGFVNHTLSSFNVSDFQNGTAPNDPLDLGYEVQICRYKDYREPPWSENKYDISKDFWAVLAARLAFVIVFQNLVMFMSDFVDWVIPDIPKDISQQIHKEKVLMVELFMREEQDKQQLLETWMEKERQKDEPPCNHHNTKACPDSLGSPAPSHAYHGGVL
Nature of the test: Automated patch clamping (QPatch) assay to measure TMEM16A activity in whole-cell. It counts as cell-based. To be noted: for EC50: CHO cells expressing human TMEM16A (abc), whole-cell automated patch clamp, Hill fit, read-out: TMEM16A QPATCH assay EC50 V3 EC50; for Emax: CHO, read-out: TMEM16A QPATCH assay EC50 V3 Assay Window (% TMEM16A max activation). The method, then:
Automated Patch Clamping Assay to Measure TMEM16A Activity in Whole-Cell
Chinese hamster ovary cells (CHO) cells expressing abc isoform of human TMEM16A channel (Ref) were grown in vented cell-culture flasks (Corning) containing cell culture medium (1×F-12 Ham, 10% FBS, 1% Penicillin-streptomycin, 5 μg/mL Blasticidin S HCl, 400 μg/mL Zeocin), maintained at 37° C. in an incubator with 5% C02, 95% 02 and 100% humidity. The cells were passaged every 2-3 days at 80-90% confluence by aspirating the cell culture medium, washing twice with 10 mL D-PBS then incubating with 4 mL Trypsin-EDTA for no longer than 5 minutes. Trypsin was neutralized with the addition of 32 mL growth medium to the cell suspension, the cells were counted using a viable-cell counter (Vi-CELL; Beckmann-Coulter) and new flasks were seeded at a cell density of 0.01, 0.02, or 0.05×10^6 cells per cm2 for 3, 2, or 1 day(s) growth, respectively. Cell suspension was diluted in the new 175 cm2 flask with 50 mL of growth medium. Doxycycline was used to induce the expression of TMEM16A channel protein and was added directly to the culture flask 18-24 hours in advance of assay at a final concentration of 1 μg/mL. Induced cells were washed with D-PBS and detached from their culture flasks by adding 10 mL of Detachin and incubating for 10 minutes. Once detached, 5 mL of QPatch assay medium (1×CHO-S-SFM II (Sigma), 25 mM HEPES) was added and the resultant cell suspension counted using the Vi-CELL viable cell counter. The optimal cell density for this QPatch assay is 2-5×1 06 cells/mL; re-adjusted as necessary with QPatch assay medium.
The ion channel activity of TMEM16A (abc) expressed in CHO cells was assed using an automated patch clamp system (Qpatch, Sophion). These systems use planar patch-clamp technology to enable high-resistance, continuous whole-cell recordings from multiple cells in parallel, whilst maintaining each individual cell as an isolated experiment. First, each well was primed with intracellular and extracellular solutions described below. Cells were spun down, washed and then resuspended using extracellular solution. Intracellular solution: 130 mM N-methyl-D-glucamine, 10 mM EGTA, 20 mM CaCl2, 1 mM MgCl2, 10 mM HEPES 10, 10 mM BAPTA, 99 mM Sucrose, 2 mM Mg-ATP, pH 7.3, 320 mOsm Extracellular solution: 130 mM N-methyl-D-glucamine, 10 mM EGTA, 20 mM CaCl2, 1 mM MgCl2, 10 mM HEPES 10, 10 mM BAPTA, 99 mM Sucrose, 2 mM Mg-ATP, pH 7.3, 320 mOsm. Resuspended cells were then added to each well and suction was applied from the intracellular side in order to position a cell on the chip aperture, form a high resistance (GO) seal and achieve a whole-cell recording configuration. Following successful whole cell access, cell membranes were maintained at a voltage of −70 mV until the voltage protocol is applied. From this voltage, membranes were depolarized to +70 mV for 1500 ms, and then hyperpolarized to […] before being depolarized again from −90 to +70 mV in a continuous ramp waveform. At the end of the ramp, the membrane voltage is stepped back to −70 mV until the next waveform was applied. Compounds were dissolved at 10 mM in 100% DMSO and then diluted into extracellular solution (0.3% DMSO final) to the desired final concentration. The assay lower and upper limit were defined as follow, average amplitude (nA) of the last 3 sweeps in the vehicle addition of each cell was considered the basal current (lower limit); the average maximum current response in 3 cells for a reference potentiator at maximal concentration (upper limit). Current values for each compound concentration were then plotted against […]. EC50 curves are fitted to concentration-response data using curve-fitting functions (Hill fit) within the QPatch software. Curve fitting is constrained between the lowest concentration (vehicle-only addition) and the highest current value measured within the concentration range. […]
In general terms: Patch clamp records ionic current or voltage across a cell membrane.

Setting [1] is: maximum current at highest dose relative to reference potentiator at maximal concentration (upper limit) and vehicle (lower limit).

Regarding `CCC(CC)NC(=O)c1cnc(-c2cccc(-c3cc(C(=O)N[C@@H](COC(C)(C)C)C(=O)OC(C)(C)C)n[nH]3)c2)o1` [Example 3.61, (S)-Tert-Butyl 3-(Tert-Butoxy)-2-(5-(3-(5-(Pentan-3-Ylcarbamoyl)Oxazol-2-Yl)Phenyl)-1 H-Pyrazole-3-Carboxamido)Propanoate Trifluoroacetate], the EC50 was 130 nM. For the same compound, the Emax under setting [1] turned out to be 123%.

On to `CCOC(=O)[C@H](Cc1ccccc1)NC(=O)c1cnc(-c2cccc(-c3cc(C(=O)NC(CC)CC)n[nH]3)c2)o1` [Example 1.38, (S)-Ethyl 2-(2-(3-(3-(Pentan-3-Ylcarbamoyl)-1 H-Pyrazol-5-yl)Phenyl)Oxazole-5-Carboxamido)-3-Phenylpropanoate], for which the EC50 was 900 nM. In addition, the Emax under setting [1] was found to be 61%.

Consider `C[C@H](NC(=O)c1cc(-c2cccc(-c3ncc(C(=O)N[C@@H](C)C4CC4)o3)c2)[nH]n1)C1CC1` [Example 2.5, N-((S)-1-Cyclopropylethyl)-2-(3-(3-(((S)-1-Cyclopropylethyl)Carbamoyl)-1H-Pyrazol-5-Yl)Phenyl)Oxazole-5-Carboxamide], for which the EC50 came to 10 nM. The Emax under setting [1] stood at 32%.

For the compound `CCOC(=O)[C@@H](NC(=O)c1cnc(-c2cccc(-c3cc(C(=O)NC(C4CC4)C4CC4)[nH]n3)c2)o1)C(C)C` [Example 1.12, (S)-Ethyl 2-(2-(3-(5-((Dicyclopropylmethyl)Carbamoyl)-1H-Pyrazol-3-yl)Phenyl)Oxazole-5-Carboxamido)-3-Methylbutanoate], the EC50 was found to be 20 nM. For the same compound, the Emax under setting [1] was determined as 87%.

For `C[C@H](NC(=O)c1cnc(-c2cccc(-c3nnc(C(=O)N[C@H](C)C4CC4)[nH]3)c2)o1)C1CC1` [Example 13.0, N-((S)-1-Cyclopropylethyl)-2-(3-(5-(((R)-1-Cyclopropylethyl)Carbamoyl)-4H-1,2,4-Triazol-3-Yl)Phenyl)Oxazole-5-Carboxamide], the EC50 was 310 nM. Further, the Emax under setting [1] came out at 74%.

`CCC(CC)NC(=O)c1cnc(-c2cccc(-c3cc(C(=O)N[C@@H](C)[C@@H]4CCCO4)n[nH]3)c2)o1` (single isomer, unassigned) [3.0 (ii)]: the EC50 came out at 950 nM. In addition, the Emax under setting [1] worked out at 79%.

For the compound `CCC(CC)NC(=O)c1cnc(-c2cccc(-c3cc(C(=O)NCc4ccccc4)n[nH]3)c2)o1` [Example 3.16, 2-(3-(3-(Benzylcarbamoyl)-1H-Pyrazol-5-Yl)Phenyl)-N-(Pentan-3-Yl)Oxazole-5-Carboxamide], the EC50 came out at 140 nM. For the same compound, the Emax under setting [1] turned out to be 67%.

With `CCOC(=O)[C@@H](NC(=O)c1cnc(-c2cccc(-c3cc(C(=O)NC(CC)CC)n[nH]3)c2)o1)C(C)C` [Example 1.1, (S)-Ethyl 3-Methyl-2-(2-(3-(3-(Pentan-3-Ylcarbamoyl)-1 H-Pyrazol-5-Yl)Phenyl)Oxazole-5-Carboxamido)Butanoate], the EC50 was 20 nM and 10 nM. For the same compound, under setting [1], the Emax turned out to be 90% and the “TMEM16A QPATCH assay EC50 V3 Assay Window (% TMEM16A max activation)” value turned out to be 100%.

With `CCC(CC)NC(=O)c1cnc(-c2cccc(-c3cc(C(=O)N[C@H](C(=O)OCc4ccccc4)C(C)C)n[nH]3)c2)o1` [Example 3.3, (S)-Benzyl 3-Methyl-2-(5-(3-(5-(Pentan-3-Ylcarbamoyl)Oxazol-2-Yl)Phenyl)-1 H-Pyrazole-3-Carboxamido)Butanoate], the EC50 stood at 180 nM. Moreover, the Emax under setting [1] is 133%.

On to `CCOC(=O)[C@@H](NC(=O)c1cnc(-c2cccc(-c3nnc(C(=O)NC(C4CC4)C4CC4)[nH]3)c2)o1)C(C)C` [Example 12.6, (S)-Ethyl 2-(2-(3-(5-((Dicyclopropylmethyl)Carbamoyl)-4H-1,2,4-Triazol-3-Yl)Phenyl)Oxazole-5-Carboxamido)-3-Methylbutanoate], for which the EC50 was 20 nM. In addition, the Emax under setting [1] is 142%.

In the case of `CCOC(=O)[C@@H](NC(=O)c1cc(-c2cccc(-c3ncc(C(=O)NC(C4CC4)C4CC4)o3)c2)nn1CC(C)(C)O)C(C)C` [Example 10.0, (S)-Ethyl 2-(3-(3-(5-((Dicyclopropylmethyl)Carbamoyl)Oxazol-2-Yl)Phenyl)-1-(2-Hydroxy-2-Methylpropyl)-1 H-Pyrazole-5-Carboxamido)-3-Methylbutanoate], the EC50 worked out at 40 nM. In addition, the Emax under setting [1] came out at 116%.

As for `CCOC(=O)[C@@H](NC(=O)c1cnc(-c2cccc(-c3cc(C(=O)NC(CC)CC)n(CCO)n3)c2)o1)C(C)C` [Example 4.1, (S)-Ethyl 2-(2-(3-(1-(2-Hydroxyethyl)-5-(Pentan-3-Ylcarbamoyl)-1H-Pyrazol-3-Yl)Phenyl)Oxazole-5-Carboxamido)-3-Methylbutanoate], the EC50 amounted to 27 nM. Further, the Emax under setting [1] worked out at 81%.

Regarding `CCC(CC)NC(=O)c1cnc(-c2cccc(-c3cc(C(=O)N[C@H](C)C(C)C)n[nH]3)c2)o1` [Example 3.37, (R)-2-(3-(3-((3-Methylbutan-2-Yl)Carbamoyl)-1H-Pyrazol-5-Yl)Phenyl)-N-(Pentan-3-Yl)Oxazole-5-Carboxamide], the EC50 is 200 nM. Also, under setting [1], the Emax amounted to 109%.

Turning to `CCC(CC)NC(=O)c1cc(-c2cccc(-c3ncc(C(=O)N[C@H](C)C4CCCCC4)o3)c2)[nH]n1` [Example 1.42, (R)-N-(1-Cyclohexylethyl)-2-(3-(3-(Pentan-3-Ylcarbamoyl)-1 H-Pyrazol-5-yl)Phenyl)Oxazole-5-Carboxamide], the EC50 was 750 nM. Under setting [1], the Emax was found to be 72%.

`COC(=O)[C@@H](NC(=O)c1cnc(-c2cccc(-c3cc(C(=O)N[C@@H](C)C4CC4)n(CC(O)C(F)(F)F)n3)c2)o1)C(C)C` (single isomer, unassigned) [8.1 (i)]: the EC50 came to 10 nM. Besides, the Emax under setting [1] stood at 135%.
